A short description of series [1]: PAMPA permeability pH 7.4. Background: The PAMPA barrier holds no transporters, so it reflects passive diffusion.
A short description of series [2]: Microsome Stability (15 min), human. Particulars: microsomes, Phase I (NADPH), read-out: Microsome Stability (15 min) T ½ Phase I human. Format: in vitro ADME.
Series [3] is described as follows: CACO2 permeability a-b/b-a. The conditions noted are these: human, Caco-2; for Papp A→B: a − b (first value of cell), read-out: CACO2 Pe a − b; for Papp B→A: b − a (second value of cell), read-out: CACO2 Pe b − a. Type of series: in vitro ADME. (Caco-2 monolayers are a common model of the intestinal barrier.)
Series [4] can be described thus: Plasma Stability (37° C.), nude mouse.
The nature of the next series: Solubility pH 7.4. Particulars: pH 7.4, aqueous buffer.
The target of another series is PI3K alpha (Homo sapiens, UniProt P42336). As to the kind of experiment: PI3K-alpha Fluorescence Polarization Assay. Type of series: biochemical. A general note: In fluorescence polarisation assays a small probe gives low polarisation when free and higher when bound to something large.
Series [5] is described as follows: Buffer Stability (37° C.).
Series [6] can be described thus: In vivo blood/plasma and tumor levels of prodrug and metabolites after 50 mg, kg po. Particulars: for plasma prodrug concentration / tumor prodrug concentration: 50 mg.
A short description of series [7]: Microsome Stability (15 min), rat. Format: in vitro ADME. The conditions noted are these: microsomes, Phase I (NADPH), read-out: Microsome Stability (15 min) T ½ Phase I rat.
Series [8] is described as follows: Plasma Stability (37° C.), rat.
Series [9] in a line: Microsome Stability (15 min), nude mouse. Type of series: in vitro ADME. Particulars: microsomes, Phase I (NADPH), read-out: Microsome Stability (15 min) T ½ Phase I nude mouse.
A further series concerns the target mTOR (Homo sapiens, UniProt P42345). As to the kind of experiment: mTOR Enzyme Assay (DELFIA, purified enzyme). The conditions noted are these: read-out: mTOR Mean IC50. Type of series: biochemical. Also noted: FLAG.

Converted amounts (≈) assume the structure as drawn.

Sequence of PI3K alpha (P42336 whole entry, species assumed): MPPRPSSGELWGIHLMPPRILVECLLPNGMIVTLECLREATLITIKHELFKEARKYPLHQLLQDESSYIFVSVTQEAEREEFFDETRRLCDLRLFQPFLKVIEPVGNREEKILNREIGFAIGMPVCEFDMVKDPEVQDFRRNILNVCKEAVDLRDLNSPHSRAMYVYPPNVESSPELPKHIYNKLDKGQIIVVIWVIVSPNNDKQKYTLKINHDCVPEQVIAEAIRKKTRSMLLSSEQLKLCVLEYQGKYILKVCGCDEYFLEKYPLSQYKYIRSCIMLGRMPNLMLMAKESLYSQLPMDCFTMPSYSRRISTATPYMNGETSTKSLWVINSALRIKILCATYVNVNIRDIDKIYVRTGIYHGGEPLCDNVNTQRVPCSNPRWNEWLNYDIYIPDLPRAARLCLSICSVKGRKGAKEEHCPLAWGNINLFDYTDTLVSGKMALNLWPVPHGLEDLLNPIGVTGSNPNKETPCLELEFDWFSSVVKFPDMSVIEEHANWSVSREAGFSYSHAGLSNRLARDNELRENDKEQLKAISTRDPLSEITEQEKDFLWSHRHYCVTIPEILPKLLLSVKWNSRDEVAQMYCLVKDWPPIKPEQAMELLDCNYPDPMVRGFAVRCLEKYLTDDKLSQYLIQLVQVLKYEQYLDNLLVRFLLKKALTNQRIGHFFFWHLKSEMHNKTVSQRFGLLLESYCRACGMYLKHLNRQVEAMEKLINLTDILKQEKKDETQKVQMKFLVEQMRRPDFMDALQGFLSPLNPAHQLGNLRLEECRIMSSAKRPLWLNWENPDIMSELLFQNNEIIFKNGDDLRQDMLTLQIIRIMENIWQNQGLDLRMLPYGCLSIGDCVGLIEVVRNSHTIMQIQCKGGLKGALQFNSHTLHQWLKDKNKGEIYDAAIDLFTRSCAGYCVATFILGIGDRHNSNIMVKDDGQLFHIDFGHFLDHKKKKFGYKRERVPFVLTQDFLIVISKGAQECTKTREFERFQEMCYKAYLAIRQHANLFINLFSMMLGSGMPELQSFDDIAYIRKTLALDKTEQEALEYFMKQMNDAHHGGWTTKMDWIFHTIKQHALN
Sequence of PI3K alpha (P27986 whole entry partner, species assumed): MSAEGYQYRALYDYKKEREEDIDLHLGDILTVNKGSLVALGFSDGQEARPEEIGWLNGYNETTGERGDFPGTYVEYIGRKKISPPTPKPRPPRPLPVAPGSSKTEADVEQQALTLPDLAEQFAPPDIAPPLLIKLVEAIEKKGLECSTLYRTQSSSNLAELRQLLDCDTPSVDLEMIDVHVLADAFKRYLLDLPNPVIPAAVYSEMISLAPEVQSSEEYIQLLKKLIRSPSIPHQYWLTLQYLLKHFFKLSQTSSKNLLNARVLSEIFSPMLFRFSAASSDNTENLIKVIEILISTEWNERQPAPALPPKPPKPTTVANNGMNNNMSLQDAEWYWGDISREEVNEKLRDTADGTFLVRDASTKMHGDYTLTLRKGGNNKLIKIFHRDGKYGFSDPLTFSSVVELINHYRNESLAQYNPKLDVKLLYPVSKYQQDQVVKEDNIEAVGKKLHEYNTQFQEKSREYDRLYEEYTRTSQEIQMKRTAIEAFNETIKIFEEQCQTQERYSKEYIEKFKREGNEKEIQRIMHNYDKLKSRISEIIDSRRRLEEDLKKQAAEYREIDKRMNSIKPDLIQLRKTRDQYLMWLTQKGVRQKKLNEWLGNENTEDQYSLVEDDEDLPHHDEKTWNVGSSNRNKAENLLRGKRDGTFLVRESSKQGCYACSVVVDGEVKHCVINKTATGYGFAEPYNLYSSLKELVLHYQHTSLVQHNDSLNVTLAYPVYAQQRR

What is called solubility is the dissolved amount per volume that the medium holds. Lower therefore signals little dissolved substance. In general, IC50 refers to the midpoint of a concentration-inhibition curve. Consider `COc1ccc2c(c1)c(/C=C1\Oc3cc(OC(=O)N(C)C)cc(OC(=O)N(C)C)c3C1=O)c(C)n2CCN1CCN(C)CC1` [Example 12, (2Z)-2-({5-methoxy-2-methyl-1-[2-(4-methylpiperazin-1-yl)ethyl]-1H-indol-3-yl}methylene)-3-oxo-2,3-dihydro-1-benzofuran-4,6-diyl bis(dimethylcarbamate)], for which, in [1], the “PAMPA Pe” value was 0.78 10e−6 cm/s. For the same compound, the half-life in series [2] worked out at 9 min. Moreover, in series [3], the Papp A→B was determined as 1.98 ×10⁻⁶ cm/s and the Papp B→A stood at 3.36 ×10⁻⁶ cm/s. In addition, the “Plasma Stability (37° C.) % Remaining (3-3.5 hours) nude mouse” value in [4] was found to be 32%. Further, in the series “Solubility pH 7.4”, the concentration in solution (solubility) was 40 µg/mL (≈ 66 µM). For the same compound, the IC50 against PI3K alpha is greater than 10 µM. Besides, in series [5], the “Buffer Stability (37° C.) % Remaining (at 16-23 hours) SGF” value worked out at 100%, the “Buffer Stability (37° C.) % Remaining (at 16-23 hours) SIF” value is given as 100%, the “Buffer Stability (37° C.) % Remaining (at 16-23 hours) pH 1” value was 100% and the “Buffer Stability (37° C.) % Remaining (at 16-23 hours) pH 4.5” value worked out at 100%. For the same compound, in [5], the “Buffer Stability (37° C.) % Remaining (at 16-23 hours) pH 6.6” value worked out at 100%, the “Buffer Stability (37° C.) % Remaining (at 16-23 hours) pH 7.4” value is reported as 100% and the “Buffer Stability (37° C.) % Remaining (at 16-23 hours) pH 9” value was determined as 90%. For the same compound, in series [6] (0.5 h), the plasma prodrug concentration was 2444, ng, ml and the tumor prodrug concentration is listed as 344, ng, ml. Moreover, in [6] (2 h), the plasma prodrug concentration was 3871, ng, ml and the tumor prodrug concentration is on record as 1278, ng, ml. The tumor prodrug concentration in [6] (6 h) was 629 ng, ml. In addition, the plasma prodrug concentration in series [6] (6 h (third value)) is reported as 2027, ng, ml. In addition, in series [6] (10 h), the plasma prodrug concentration was 443 ng, ml and the tumor prodrug concentration was 69 ng, ml. In addition, in series [6] (24 h), the plasma prodrug concentration is 1 ng, ml and the tumor prodrug concentration entry is “bql”. Also, the “tumor precursor phenolic cmpd concentration (metabolite)” value in [6] (prodrug 50 mg, 6 h (third value)) is “bql”. In addition, in series [6] (prodrug 50 mg, 24 h), the “blood 4-OH, 6-OR mono prodrug concentration (metabolite)” value is on record as “bql”; the “blood 6-OH, 4-OR mono prodrug concentration (metabolite)” value is recorded as “bql”; the “tumor 6-OH, 4-OR mono prodrug concentration (metabolite)” value is on record as “bql”. For the same compound, the half-life in series [7] is 23 min. The “Plasma Stability (37° C.) % Remaining (3-3.5 hours) rat” value in series [8] is given as 71%. In addition, in series [9], the half-life worked out at 23 min.

Consider `CN(C)C(=O)Oc1cc(OC(=O)N(C)C)c2c(c1)O/C(=C\c1cn(C)c3nccc(-c4ccccc4)c13)C2=O` [Example 43, (2Z)-2-[(1-methyl-4-phenyl-1H-pyrrolo[2,3-b]pyridin-3-yl)methylene]-3-oxo-2,3-dihydro-1-benzofuran-4,6-diyl bis(dimethylcarbamate)], for which, in series [1], the “PAMPA Pe” value is on record as “Undetected”. Besides, the half-life in [2] was determined as 11 min. Moreover, in series [3], the Papp A→B is 2.2 ×10⁻⁶ cm/s and the Papp B→A came to 1 ×10⁻⁶ cm/s. Further, in series [4], the “Plasma Stability (37° C.) % Remaining (3-3.5 hours) nude mouse” value was 52%. Also, the IC50 on mTOR was greater than 4 µM. In addition, the 50% inhibitory concentration (IC50) on PI3K alpha was greater than 10 µM. Also, in series [5], the “Buffer Stability (37° C.) % Remaining (at 16-23 hours) SGF” value was 100%, the “Buffer Stability (37° C.) % Remaining (at 16-23 hours) SIF” value came out at 100%, the “Buffer Stability (37° C.) % Remaining (at 16-23 hours) pH 1” value worked out at 100% and the “Buffer Stability (37° C.) % Remaining (at 16-23 hours) pH 4.5” value stood at 100%. Also, in [5], the “Buffer Stability (37° C.) % Remaining (at 16-23 hours) pH 6.6” value is given as 100%, the “Buffer Stability (37° C.) % Remaining (at 16-23 hours) pH 7.4” value was 100% and the “Buffer Stability (37° C.) % Remaining (at 16-23 hours) pH 9” value is given as 100%. Also, the “Plasma Stability (37° C.) % Remaining (3-3.5 hours) rat” value in series [8] worked out at 54%. Besides, in [9], the half-life was 12 min.

As to `CN(C)C(=O)Oc1cccc2c1C(=O)/C(=C/c1cn(C)c3nccc(N4CC5CCC(C4)O5)c13)O2` [Example 44, (2Z)-2-{[1-methyl-4-(8-oxa-3-azabicyclo[3.2.1]oct-3-yl)-1H-pyrrolo[2,3-b]pyridin-3-yl]methylene}-3-oxo-2,3-dihydro-1-benzofuran-4-yl dimethylcarbamate], the “PAMPA Pe” value in series [1] is recorded as “Undetected”. For the same compound, in series [2], the half-life is 8 min. In [4], the “Plasma Stability (37° C.) % Remaining (3-3.5 hours) nude mouse” value stood at 64%. Besides, the half-maximal inhibitory concentration (IC50) at mTOR stood at 0.031 µM. Also, the IC50 against PI3K alpha was determined as 2.49 µM. In addition, in series [5], the “Buffer Stability (37° C.) % Remaining (at 16-23 hours) SGF” value stood at 102%, the “Buffer Stability (37° C.) % Remaining (at 16-23 hours) SIF” value is listed as 100%, the “Buffer Stability (37° C.) % Remaining (at 16-23 hours) pH 1” value is 102% and the “Buffer Stability (37° C.) % Remaining (at 16-23 hours) pH 4.5” value turned out to be 100%. In series [5], the “Buffer Stability (37° C.) % Remaining (at 16-23 hours) pH 6.6” value turned out to be 100%, the “Buffer Stability (37° C.) % Remaining (at 16-23 hours) pH 7.4” value worked out at 100% and the “Buffer Stability (37° C.) % Remaining (at 16-23 hours) pH 9” value worked out at 100%. The half-life in [7] stood at 3 min. The “Plasma Stability (37° C.) % Remaining (3-3.5 hours) rat” value in [8] was 51%. For the same compound, in series [9], the half-life stood at 4 min.

As for `COc1ccc2c(c1)c(/C=C1\Oc3cc(OC(=O)N(C)c4ccccc4)ccc3C1=O)c(C)n2CCN1CCN(C)CC1` [Example 46, (2Z)-2-({5-methoxy-2-methyl-1-[2-(4-methylpiperazin-1-yl)ethyl]-1H-indol-3-yl}methylene)-3-oxo-2,3-dihydro-1-benzofuran-6-yl methyl(phenyl)carbamate], the “PAMPA Pe” value in series [1] is “Undetected”. Moreover, the “Plasma Stability (37° C.) % Remaining (3-3.5 hours) nude mouse” value in series [4] is 19%. For the same compound, the 50% inhibitory concentration (IC50) at mTOR was greater than 4 µM. In series [5], the “Buffer Stability (37° C.) % Remaining (at 16-23 hours) SGF” value is 98%, the “Buffer Stability (37° C.) % Remaining (at 16-23 hours) SIF” value is 100%, the “Buffer Stability (37° C.) % Remaining (at 16-23 hours) pH 1” value was 101% and the “Buffer Stability (37° C.) % Remaining (at 16-23 hours) pH 4.5” value came to 99%. In addition, in series [5], the “Buffer Stability (37° C.) % Remaining (at 16-23 hours) pH 6.6” value was 98%, the “Buffer Stability (37° C.) % Remaining (at 16-23 hours) pH 7.4” value worked out at 97% and the “Buffer Stability (37° C.) % Remaining (at 16-23 hours) pH 9” value worked out at 96%. The half-life in series [7] worked out at 10 min. In series [8], the “Plasma Stability (37° C.) % Remaining (3-3.5 hours) rat” value is reported as 22%.

On to `COc1ccc2c(c1)c(/C=C1\Oc3cc(OC(=O)N(C(C)C)C(C)C)ccc3C1=O)c(C)n2CCN1CCN(C)CC1` [Example 47, (2Z)-2-({5-methoxy-2-methyl-1-[2-(4-methylpiperazin-1-yl)ethyl]-1H-indol-3-yl}methylene)-3-oxo-2,3-dihydro-1-benzofuran-6-yl diisopropylcarbamate], for which, in [1], the “PAMPA Pe” value is recorded as “Undetected”. For the same compound, the “Plasma Stability (37° C.) % Remaining (3-3.5 hours) nude mouse” value in [4] amounted to 82%. In addition, the 50% inhibitory concentration (IC50) at mTOR is greater than 4 µM. The IC50 at PI3K alpha was greater than 10 µM. In series [5], the “Buffer Stability (37° C.) % Remaining (at 16-23 hours) SGF” value is reported as 98%, the “Buffer Stability (37° C.) % Remaining (at 16-23 hours) SIF” value was 94%, the “Buffer Stability (37° C.) % Remaining (at 16-23 hours) pH 1” value came out at 97% and the “Buffer Stability (37° C.) % Remaining (at 16-23 hours) pH 4.5” value came out at 100%. Moreover, in series [5], the “Buffer Stability (37° C.) % Remaining (at 16-23 hours) pH 6.6” value was 95%, the “Buffer Stability (37° C.) % Remaining (at 16-23 hours) pH 7.4” value worked out at 100% and the “Buffer Stability (37° C.) % Remaining (at 16-23 hours) pH 9” value is 96%. In addition, the half-life in series [7] turned out to be 16 min. For the same compound, in [8], the “Plasma Stability (37° C.) % Remaining (3-3.5 hours) rat” value was 92%.

These data come from patent US20100061982A1, “3-SUBSTITUTED-1H-INDOLE, 3-SUBSTITUTED-1H-PYRROLO[2,3-B]PYRIDINE AND 3-SUBSTITUTED-1H-PYRROLO[3,2-B]PYRIDINE COMPOUNDS, THEIR USE AS MTOR KINASE AND PI3 KINASE INHIBITORS, AND THEIR SYNTHESES” (priority 2008, published 2010).
